Assay results from patent US10959432B2, “Microbiocidal oxadiazole derivatives” (Syngenta Participations AG, priority 2016, dated 2021).

Tests used:
Uromyces viciae-fabae = test: Fungicidal activity against Uromyces viciae-fabae / field bean / leaf disc preventative (faba-bean rust); type: in vivo; conditions: foliar, 288 h, 100 ppm in the applied formulation, field bean leaf discs, preventative (inoculated two hours after application), assessed 12 days after application, read-out: disease control compared to untreated control leaf discs
Procedure: Leaf disks or leaf segments of various plant species are cut from plants grown in a greenhouse. The cut leaf disks or segments are placed in multiwell plates (24-well format) onto water agar. The leaf disks are sprayed with a test solution before (preventative) or after (curative) inoculation. Compounds to be tested are prepared as DMSO solutions (max. 10 mg/ml) which are diluted to the appropriate concentration with 0.025% Tween20 just before spraying. The inoculated leaf disks or segments are incubated under defined conditions (temperature, relative humidity, light, etc.) according to the respective test system. A single evaluation of disease level is carried out 3 to 14 days after inoculation, depending on the pathosystem. Percent disease control relative to the untreated check leaf disks or segments is then calculated. General Examples of Liquid Culture Tests in Well Plates:
Example 5: Fungicidal Activity Against Uromyces viciae-fabae/Field Bean/Leaf Disc Preventative (Faba-Bean Rust)
Field bean leaf discs are placed on water agar in multiwell plates (96-well format) and 10 μl of the formulated test compound diluted in acetone and a spreader pipetted onto the leaf disc. Two hours after application leaf discs are inoculated by spraying a spore suspension on the lower leaf surface. The leaf discs are incubated in a climate cabinet at 22° C. with 18 hour day and 70% relative humidity. The activity of a compound is assessed as percent disease control compared to untreated when an appropriate level of disease damage appears in untreated check leaf disks (12 days after application).
The following compounds at 100 ppm in the applied formulation give at least 80% disease control in this test when compared to untreated control leaf discs under the same conditions, which show extensive disease development.

Phakopsora pachyrhizi = test: Fungicidal activity against Phakopsora pachyrhizi / soybean / leaf disc preventative (Asian soybean rust); type: in vivo; conditions: foliar, 200 ppm in the applied formulation, soybean leaf disks, preventative (inoculated one day after application), assessed 12 to 14 days after application, read-out: disease control compared to untreated control leaf disks
Summary of the method: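 Soybean leaf discs on water agar sprayed with formulated compound diluted in water; spore suspension sprayed on lower leaf surface one day later. Incubated 24-36 h dark at 20° C, 75% rh, then 20° C, 12 h light/day, 75% rh. Percent disease control versus untreated scored 12 to 14 days after application.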

[1] = test system: Puccinia recondita f. sp. tritici; test: Fungicidal activity against Puccinia recondita f. sp. tritici / wheat / leaf disc curative (brown rust); type: in vivo; conditions: foliar, 200 ppm in the applied formulation, wheat leaf segments cv. Kanzler, curative (applied 1 day after inoculation), assessed 6 to 8 days after application, read-out: disease control compared to untreated control leaf disks
Summary of the method: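 Wheat cv. Kanzler leaf segments on agar, spore-inoculated, held dark at 19° C./75% RH; formulated compound in water sprayed 1 day post-inoculation (curative). Incubated 19° C., 75% RH, 12 h light/12 h dark; percent disease control vs untreated scored 6 to 8 days after application.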

[2] = test system: Puccinia recondita f. sp. tritici; test: Fungicidal activity against Puccinia recondita f. sp. tritici / wheat / leaf disc preventative (brown rust); type: in vivo; conditions: foliar, 200 ppm in the applied formulation, wheat leaf segments cv. Kanzler, preventative (inoculated 1 day after application), assessed 7 to 9 days after application, read-out: disease control compared to untreated control leaf disks
Summary of the method: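 Wheat cv. Kanzler leaf segments on agar sprayed with formulated compound diluted in water, inoculated with P. recondita spores 1 day later. Incubated at 19C, 75% rh, 12 h light/12 h dark; scored 7 to 9 days after application as percent disease control versus untreated segments. Test rate 200 ppm.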

[3] = test system: Glomerella laqenarium (Colletotrichum lagenarium); test: Fungicidal activity against Glomerella lagenarium (Colletotrichum lagenarium) liquid culture / cucumber / preventative (anthracnose); type: cell-based; conditions: Colletotrichum orbiculare; 20 ppm in the applied formulation; liquid culture in PDB, 24° C., 3 to 4 days after application; read-out: disease control compared to untreated control (inhibition of growth measured photometrically)
Summary of the method: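 Cryostored conidia mixed into potato dextrose broth and added to test compound (from DMSO solution) in microtiter plates. Incubated at 24 °C; growth inhibition read photometrically 3 to 4 days after application, as percent activity versus untreated check.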

CC1CCCC(NC(=O)c2ccc(-c3noc(C(F)(F)F)n3)cc2)C1 (stereo not drawn) [Compound 2a.2, N-(3-methylcyclohexyl)-4-[5-(trifluoromethyl)-1,2,4-oxadiazol-3-yl]benzamide]
≥ 80%: pest or weed control at 100 ppm (Uromyces viciae-fabae) | pest or weed control at 200 ppm (Phakopsora pachyrhizi)

O=C(NC1CCCCCCC1)c1ccc(-c2noc(C(F)(F)F)n2)cc1 [Compound 2a.5, N-cyclooctyl-4-[5-(trifluoromethyl)-1,2,4-oxadiazol-3-yl]benzamide]
≥ 80%: pest or weed control at 100 ppm (Uromyces viciae-fabae) | pest or weed control at 200 ppm (Phakopsora pachyrhizi)

CC(C)NC(=O)c1ccc(-c2noc(C(F)(F)F)n2)cc1F [Compound 3b.27, 2-fluoro-N-isopropyl-4-[5-(trifluoromethyl)-1,2,4-oxadiazol-3-yl]benzamide]
≥ 80%: pest or weed control at 200 ppm [1] | pest or weed control at 200 ppm [2] | inhibition at 20 ppm [3] | pest or weed control at 200 ppm (Phakopsora pachyrhizi)

CC(C)(O)CNC(=O)c1ccc(-c2noc(C(F)(F)F)n2)cc1F [Compound 3b.29, 2-fluoro-N-(2-hydroxy-2-methyl-propyl)-4-[5-(trifluoromethyl)-1,2,4-oxadiazol-3-yl]benzamide]
≥ 80%: pest or weed control at 200 ppm [1] | pest or weed control at 200 ppm [2] | inhibition at 20 ppm [3] | pest or weed control at 200 ppm (Phakopsora pachyrhizi)

C=CCN(CC)C(=O)c1ccc(-c2noc(C(F)(F)F)n2)cc1F [Compound 3b.30, N-allyl-N-ethyl-2-fluoro-4-[5-(trifluoromethyl)-1,2,4-oxadiazol-3-yl]benzamide]
≥ 80%: pest or weed control at 200 ppm [1] | pest or weed control at 200 ppm [2] | inhibition at 20 ppm [3] | pest or weed control at 200 ppm (Phakopsora pachyrhizi)

CCN(CC)C(=O)c1ccc(-c2noc(C(F)(F)F)n2)cc1F [Compound 3b.32, N,N-diethyl-2-fluoro-4-[5-(trifluoromethyl)-1,2,4-oxadiazol-3-yl]benzamide]
≥ 80%: pest or weed control at 200 ppm [1] | pest or weed control at 200 ppm [2] | inhibition at 20 ppm [3] | pest or weed control at 200 ppm (Phakopsora pachyrhizi)

C=C(C)CN(CC)C(=O)c1ccc(-c2noc(C(F)(F)F)n2)cc1F [Compound 3b.33, N-ethyl-2-fluoro-N-(2-methylallyl)-4-[5-(trifluoromethyl)-1,2,4-oxadiazol-3-yl]benzamide]
≥ 80%: pest or weed control at 200 ppm [1] | pest or weed control at 200 ppm [2] | inhibition at 20 ppm [3] | pest or weed control at 200 ppm (Phakopsora pachyrhizi)

CCCN(C)C(=O)c1ccc(-c2noc(C(F)(F)F)n2)cc1F [Compound 3b.34, 2-fluoro-N-methyl-N-propyl-4-[5-(trifluoromethyl)-1,2,4-oxadiazol-3-yl]benzamide]
≥ 80%: pest or weed control at 200 ppm [1] | pest or weed control at 200 ppm [2] | inhibition at 20 ppm [3] | pest or weed control at 200 ppm (Phakopsora pachyrhizi)

CCN(C(=O)c1ccc(-c2noc(C(F)(F)F)n2)cc1F)C(C)C [Compound 3b.35, N-ethyl-2-fluoro-N-isopropyl-4-[5-(trifluoromethyl)-1,2,4-oxadiazol-3-yl]benzamide]
≥ 80%: pest or weed control at 200 ppm [1] | pest or weed control at 200 ppm [2] | inhibition at 20 ppm [3] | pest or weed control at 200 ppm (Phakopsora pachyrhizi)

CC(C)N(C)C(=O)c1ccc(-c2noc(C(F)(F)F)n2)cc1F [Compound 3b.36, 2-fluoro-N-isopropyl-N-methyl-4-[5-(trifluoromethyl)-1,2,4-oxadiazol-3-yl]benzamide]
≥ 80%: pest or weed control at 200 ppm [1] | pest or weed control at 200 ppm [2] | inhibition at 20 ppm [3] | pest or weed control at 200 ppm (Phakopsora pachyrhizi)

CN(C(=O)c1ccc(-c2noc(C(F)(F)F)n2)cc1F)C(C)(C)C [Compound 3b.37, N-tert-butyl-2-fluoro-N-methyl-4-[5-(trifluoromethyl)-1,2,4-oxadiazol-3-yl]benzamide]
≥ 80%: pest or weed control at 200 ppm [1] | pest or weed control at 200 ppm [2] | inhibition at 20 ppm [3] | pest or weed control at 200 ppm (Phakopsora pachyrhizi)

CCCCN(C)C(=O)c1ccc(-c2noc(C(F)(F)F)n2)cc1F [Compound 3b.38, N-butyl-2-fluoro-N-methyl-4-[5-(trifluoromethyl)-1,2,4-oxadiazol-3-yl]benzamide]
≥ 80%: pest or weed control at 200 ppm [1] | pest or weed control at 200 ppm [2] | inhibition at 20 ppm [3] | pest or weed control at 200 ppm (Phakopsora pachyrhizi)

CCOCCNC(=O)c1ccc(-c2noc(C(F)(F)F)n2)cc1F [Compound 3b.39, N-(2-ethoxyethyl)-2-fluoro-4-[5-(trifluoromethyl)-1,2,4-oxadiazol-3-yl]benzamide]
≥ 80%: pest or weed control at 200 ppm [1] | pest or weed control at 200 ppm [2] | inhibition at 20 ppm [3] | pest or weed control at 200 ppm (Phakopsora pachyrhizi)

COCC(C)NC(=O)c1ccc(-c2noc(C(F)(F)F)n2)cc1F (stereo not drawn) [Compound 3b.40, 2-fluoro-N-(2-methoxy-1-methyl-ethyl)-4-[5-(trifluoromethyl)-1,2,4-oxadiazol-3-yl]benzamide]
≥ 80%: pest or weed control at 200 ppm [1] | pest or weed control at 200 ppm [2] | inhibition at 20 ppm [3] | pest or weed control at 200 ppm (Phakopsora pachyrhizi)

CC(C)CCNC(=O)c1ccc(-c2noc(C(F)(F)F)n2)cc1F [Compound 3b.41, 2-fluoro-N-isopentyl-4-[5-(trifluoromethyl)-1,2,4-oxadiazol-3-yl]benzamide]
≥ 80%: pest or weed control at 200 ppm [1] | pest or weed control at 200 ppm [2] | inhibition at 20 ppm [3] | pest or weed control at 200 ppm (Phakopsora pachyrhizi)

CC(C)OCCNC(=O)c1ccc(-c2noc(C(F)(F)F)n2)cc1F [Compound 3b.43, 2-fluoro-N-(2-isopropoxyethyl)-4-[5-(trifluoromethyl)-1,2,4-oxadiazol-3-yl]benzamide]
≥ 80%: pest or weed control at 200 ppm [1] | pest or weed control at 200 ppm [2] | inhibition at 20 ppm [3] | pest or weed control at 200 ppm (Phakopsora pachyrhizi)

C#CCN(C)C(=O)c1ccc(-c2noc(C(F)(F)F)n2)cc1F [Compound 3b.44, 2-fluoro-N-methyl-N-prop-2-ynyl-4-[5-(trifluoromethyl)-1,2,4-oxadiazol-3-yl]benzamide]
≥ 80%: pest or weed control at 200 ppm [1] | pest or weed control at 200 ppm [2] | inhibition at 20 ppm [3] | pest or weed control at 200 ppm (Phakopsora pachyrhizi)

O=C(Nc1nc(Br)n[nH]1)c1ccc(-c2noc(C(F)(F)F)n2)cc1 [Compound 5a.6, N-(3-bromo-1H-1,2,4-triazol-5-yl)-4-[5-(trifluoromethyl)-1,2,4-oxadiazol-3-yl]benzamide]
≥ 80%: pest or weed control at 200 ppm [1] | pest or weed control at 200 ppm [2] | inhibition at 20 ppm [3] | pest or weed control at 200 ppm (Phakopsora pachyrhizi)

O=C(Nc1nccnn1)c1ccc(-c2noc(C(F)(F)F)n2)cc1 [Compound 5a.8, N-(1,2,4-triazin-3-yl)-4-[5-(trifluoromethyl)-1,2,4-oxadiazol-3-yl]benzamide]
≥ 80%: pest or weed control at 200 ppm [1] | pest or weed control at 200 ppm [2] | inhibition at 20 ppm [3] | pest or weed control at 200 ppm (Phakopsora pachyrhizi)
